This experiment deals with Endoplasmic reticulum aminopeptidase 2 (Homo sapiens) (UniProt Q6P179). The experiment in a line: ERAP2 activation by compounds, dose response, selectivity assay for selective ERAP1 modulator project, biochemical, fluorescence plate reader, cherry-picked samples (AID 743319). The note with it: recombinant ERAP2, Arg-AMC cleavage fluorescence, 1 h.

Calls of active or inactive are those of the source.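 How the source made its calls: active means fitted curve reaches 200% activation at or below the highest valid dose tested for that compound; inconclusive means flat fit between 30 and 70% activation, or unreliable fit; inactive means the rest.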

Endoplasmic reticulum aminopeptidase 2 (Homo sapiens), sequence (Q6P179 whole entry, looked up): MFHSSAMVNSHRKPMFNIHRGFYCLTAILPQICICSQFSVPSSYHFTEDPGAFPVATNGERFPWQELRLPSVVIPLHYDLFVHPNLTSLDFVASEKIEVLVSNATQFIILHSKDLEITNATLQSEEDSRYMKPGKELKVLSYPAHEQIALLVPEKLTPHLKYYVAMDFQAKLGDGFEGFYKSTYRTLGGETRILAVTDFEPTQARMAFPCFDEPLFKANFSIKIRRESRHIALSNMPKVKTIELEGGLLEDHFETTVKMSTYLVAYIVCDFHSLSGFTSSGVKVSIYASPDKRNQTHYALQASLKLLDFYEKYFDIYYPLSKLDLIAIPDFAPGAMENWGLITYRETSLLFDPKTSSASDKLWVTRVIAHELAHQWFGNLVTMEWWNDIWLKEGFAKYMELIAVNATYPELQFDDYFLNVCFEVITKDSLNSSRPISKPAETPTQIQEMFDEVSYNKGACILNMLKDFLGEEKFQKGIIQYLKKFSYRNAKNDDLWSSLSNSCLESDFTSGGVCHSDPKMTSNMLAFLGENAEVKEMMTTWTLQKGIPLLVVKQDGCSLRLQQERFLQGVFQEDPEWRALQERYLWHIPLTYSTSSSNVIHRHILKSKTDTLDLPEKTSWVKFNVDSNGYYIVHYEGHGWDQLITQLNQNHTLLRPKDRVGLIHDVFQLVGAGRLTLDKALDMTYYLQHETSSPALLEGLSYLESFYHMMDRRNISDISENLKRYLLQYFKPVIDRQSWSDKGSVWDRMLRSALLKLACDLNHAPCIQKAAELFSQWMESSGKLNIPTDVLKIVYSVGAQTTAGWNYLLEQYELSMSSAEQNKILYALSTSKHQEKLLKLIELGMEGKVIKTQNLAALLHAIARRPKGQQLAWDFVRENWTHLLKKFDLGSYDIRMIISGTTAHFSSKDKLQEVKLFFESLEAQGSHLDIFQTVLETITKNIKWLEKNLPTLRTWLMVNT

In the case of `Cc1noc(C)c1S(=O)(=O)Nc1ccc2c(c1)C(=O)N([C@H](C)CO)C[C@H](C)[C@H](CN(C)Cc1ccc3c(c1)OCO3)OCCCC[C@@H](C)O2`, the activation (at 10 µM (top of the series)) is 11.2% (inactive).

For `COCC(=O)N1[C@@H]2Cn3c(ccc(/C=C/c4ccccc4)c3=O)[C@H]1[C@@H](C(=O)N1CCOCC1)[C@@H]2CO`, the AC200 was 1550 nM.

In the case of `CCc1c(C)c2cc(Cl)c(O)c(CN(CC)CC)c2oc1=O`, the AC200 was 1170 nM.

Take `COc1ccc(CN(C)C[C@@H]2OCCCC[C@@H](C)Oc3ccc(NS(=O)(=O)c4cccs4)cc3C(=O)N([C@@H](C)CO)C[C@H]2C)cc1`: for the setting “at 11 µM (top of the series)”, the activation is -1.25% (inactive).

Regarding `CCCN(C)C[C@@H]1OCCCC[C@@H](C)Oc2ccc(NS(=O)(=O)c3ccc(C)cc3)cc2C(=O)N([C@@H](C)CO)C[C@@H]1C`, under “at 5 µM (top of the series)”, the activation is 6.28% (inactive).

Consider `CCCN(C)C[C@@H]1OCCCC[C@H](C)Oc2ccc(NC(=O)Nc3ccc(F)cc3)cc2C(=O)N([C@H](C)CO)C[C@@H]1C`, for which the activation (at 11 µM (top of the series)) was 10.8% (inactive).

With `COC(=O)[C@@H]1[C@@H](CO)[C@@H]2Cn3c(ccc(/C=C/c4ccccc4)c3=O)[C@H]1N2C(=O)C1CCC1`, the AC200 was 2170 nM.

Regarding `CCc1c(C)c2cc(Cl)c(O)c(CN(C)C)c2oc1=O`, the AC200 is 803 nM.

Regarding `CCCN1[C@@H]2Cn3c(ccc(/C=C/c4ccccc4)c3=O)[C@H]1[C@@H](C(=O)NCc1ccccn1)[C@@H]2CO`, the AC200 was 2260 nM.

As to `COC(=O)[C@H]1[C@H](CO)[C@H]2Cn3c(ccc(/C=C/c4ccccc4)c3=O)[C@@H]1N2C(=O)C1CCC1`, the AC200 was 1600 nM.

For the compound `CCN(CC)c1ccc2c(C)c(Cl)c(=O)oc2c1`, the AC200 is 1420 nM.

In the case of `C[C@H]1CN([C@@H](C)CO)C(=O)c2cccc(NC(=O)Nc3ccc4c(c3)OCO4)c2O[C@@H]1CN(C)CC1CC1`, the activation (at 11 µM (top of the series)) is 12.8% (inactive).

As to `O=C(O)c1cccc(NC(=O)c2ccccc2NC(=O)c2cccc([N+](=O)[O-])c2)c1`, the activation (at 11 µM (top of the series)) was 15.7% (inactive).

With `Cc1ccccc1-c1ccc2c(c1)O[C@@H](CN(C)Cc1ccc(C(=O)O)cc1)[C@@H](C)CN([C@@H](C)CO)S2(=O)=O`, the activation (at 11 µM (top of the series)) is 0.523% (inactive).

As for `Cc1c(C)c2ccc(O)c(CN3CCCC3)c2oc1=O`, the AC200 was 2100 nM.

Consider `C[C@@H]1CCCCO[C@@H](CN(C)Cc2ccc3c(c2)OCO3)[C@@H](C)CN([C@@H](C)CO)C(=O)c2cc(NS(=O)(=O)c3ccccc3)ccc2O1`, for which the activation (at 5.6 µM (top of the series)) was 12.7% (inactive).

As for `O=c1ccc2cc(O[C@@H]3O[C@@H](CO)[C@H](O)[C@@H](O)[C@@H]3O)c(O)cc2o1`, the AC200 is 744 nM.

Take `O=C(CSc1cn[nH]n1)Nc1cccc(C(=O)O)c1`: for the setting “at 11 µM (top of the series)”, the activation was 13.8% (inactive).

For the compound `Cc1noc(C)c1NC(=O)N(C)C[C@@H]1Oc2c(NC(=O)Nc3ccccc3)cccc2C(=O)N([C@H](C)CO)C[C@@H]1C`, the activation (at 11 µM (top of the series)) is 10.6% (inactive).

Regarding `C[C@@H]1CCCCO[C@H](CN(C)Cc2ccc(C(=O)O)cc2)[C@@H](C)CN([C@H](C)CO)C(=O)c2cc(NC(=O)Nc3ccc(C(F)(F)F)cc3)ccc2O1`, the activation (at 11 µM (top of the series)) is 2.62% (inactive).

Turning to `COc1ccc(CN(C)C[C@H]2OCCCC[C@@H](C)Oc3ccc(NS(=O)(=O)c4cccs4)cc3C(=O)N([C@@H](C)CO)C[C@@H]2C)cc1`, where the note is “at 11 µM (top of the series)”, the activation is 10.1% (inactive).

With `COc1ccc(S(=O)(=O)N(C)C[C@@H]2Oc3ncccc3C(=O)N([C@H](C)CO)C[C@@H]2C)cc1`, for the setting “at 5.6 µM (top of the series)”, the activation is 11.3% (inactive).

As to `C[C@@H]1CCCCO[C@@H](CN(C)CC2CC2)[C@@H](C)CN([C@H](C)CO)C(=O)c2cc(NS(=O)(=O)c3cccs3)ccc2O1`, where the note is “at 11 µM (top of the series)”, the activation is 14.7% (inactive).

`COc1ccc(CN(C)C[C@@H]2OCCCC[C@@H](C)Oc3ccc(NS(=O)(=O)c4c(C)noc4C)cc3C(=O)N([C@@H](C)CO)C[C@@H]2C)cc1`: the activation (at 11 µM (top of the series)) is -1% (inactive).

`C[C@@H]1CCCCO[C@@H](CN(C)Cc2ccc(C(=O)O)cc2)[C@H](C)CN([C@@H](C)CO)C(=O)c2cc(NS(=O)(=O)c3ccc(Cl)cc3)ccc2O1`: the activation (at 11 µM (top of the series)) was 24.2% (inactive).

As for `CCCCc1cc(=O)oc2cc(O)ccc12`, the AC200 was 3980 nM.

In the case of `CCCN(C)C[C@@H]1OCCCC[C@@H](C)Oc2ccc(NS(=O)(=O)c3ccc(C)cc3)cc2C(=O)N([C@H](C)CO)C[C@@H]1C`, the activation (at 10 µM (top of the series)) was 6.04% (inactive).

As to `C[C@@H]1CCCCO[C@@H](CN(C)C)[C@@H](C)CN([C@@H](C)CO)C(=O)c2cc(NS(=O)(=O)c3ccc(F)cc3)ccc2O1`, the activation (at 11 µM (top of the series)) was 5.3% (inactive).

For `COc1ccc(CNCc2c(O)c(Cl)cc3c(C)c(C)c(=O)oc23)c(OC)c1`, the AC200 is 1030 nM.

As to `N#Cc1c(N)n(CCNC(=O)c2ccccc2)c2nc3ccccc3nc12`, the AC200 is 4630 nM.

With `C[C@@H]1CCCCO[C@@H](CN(C)C)[C@@H](C)CN([C@@H](C)CO)C(=O)c2cc(NS(=O)(=O)c3ccc(Cl)cc3)ccc2O1`, under “at 11 µM (top of the series)”, the activation was 2.17% (inactive).

As for `Cc1ccc2nc3c(cc(C(=O)NCc4ccccc4)c(=N)n3CCCn3ccnc3)c(=O)n2c1`, the AC200 is > 11000 nM (inactive).

`COc1ccc(CN(C)C[C@H]2OCCCC[C@@H](C)Oc3ccc(NS(=O)(=O)c4cccs4)cc3C(=O)N([C@H](C)CO)C[C@H]2C)cc1`: the activation (at 11 µM (top of the series)) was 3.67% (inactive).

For `CCCNC(=O)C[C@@H]1CC[C@@H]2[C@H](COC[C@H](O)CN2C(=O)Nc2cccc(Cl)c2)O1`, the activation (at 11 µM (top of the series)) was 22.2% (inactive).

`CCC(=O)N(C)C[C@@H]1Oc2ncc(C#Cc3ccncc3)cc2C(=O)N([C@@H](C)CO)C[C@@H]1C`: for the setting “at 11 µM (top of the series)”, the activation is -17.3% (inactive).

In the case of `CC(=O)N1[C@@H]2Cn3c(ccc(/C=C/c4ccccc4)c3=O)[C@H]1[C@@H](C(=O)NCC1CC1)[C@@H]2CO`, the AC200 is 2500 nM.

Regarding `COC(=O)Cc1c(C)c2ccc(O)c(CNCc3ccc(OC)c(OC)c3)c2oc1=O`, the AC200 was 1010 nM.

In the case of `Cc1ccc(-c2cc(C(=O)N3CCCC3)c3ccccc3n2)s1`, the AC200 was > 11000 nM (inactive).

For `CCCNC(=O)C[C@H]1CC[C@@H]2[C@H](COC[C@H](O)CN2C(=O)Nc2cccc(Cl)c2)O1`, the activation (at 11 µM (top of the series)) was 19.4% (inactive).

Consider `COCC(=O)N1[C@@H]2c3ccc(/C=C/c4ccccc4)c(=O)n3C[C@H]1[C@H](CO)[C@H]2C(=O)N1CCOCC1`, for which the AC200 is 1500 nM.

In the case of `C[C@H]1CN([C@@H](C)CO)C(=O)c2cccc(NC(=O)Nc3ccc(C(F)(F)F)cc3)c2O[C@@H]1CN(C)C`, the activation (at 11 µM (top of the series)) is 2.76% (inactive).

As for `COc1cc2ccc(=O)oc2cc1O`, the AC200 is 678 nM.

For the compound `CCCN(C)C[C@@H]1OCCCC[C@@H](C)Oc2ccc(NS(=O)(=O)c3ccccc3)cc2C(=O)N([C@H](C)CO)C[C@@H]1C`, where the note is “at 11 µM (top of the series)”, the activation is 16% (inactive).

Consider `Cc1cc(=O)oc2cc(NS(=O)(=O)c3ccc(F)cc3)ccc12`, for which the AC200 is 2110 nM.

As for `Cc1c(C)c2ccc(O)c(CN3CCN(C)CC3)c2oc1=O`, the AC200 is 3430 nM.

Take `C[C@@H]1CCCCO[C@@H](CN(C)Cc2ccc3c(c2)OCO3)[C@@H](C)CN([C@H](C)CO)C(=O)c2cc(NS(=O)(=O)c3cccs3)ccc2O1`: the activation (at 11 µM (top of the series)) is 1.03% (inactive).

Take `CCN(CCCl)c1cc(CN(C)C)cc(NC(=O)c2ccc(C(=O)Nc3cc(CN(C)C)cc(N(CC)CCCl)c3)cc2)c1`: the activation (at 11 µM (top of the series)) was -8.9% (inactive).

Turning to `Cc1cc(=O)oc2c(CN3CCN(C)CC3)c(O)c(Cl)cc12`, for the setting “at 11 µM (top of the series)”, the activation was 12% (inactive).

As to `COc1ccc(-c2cc3ccc(O)cc3oc2=O)cc1`, the AC200 was 775 nM.

`C[C@H](CO)N1C[C@H](C)[C@H](CN(C)CC2CCCCC2)Oc2c(NC(=O)Nc3ccc(C(F)(F)F)cc3)cccc2C1=O`: under “at 11 µM (top of the series)”, the activation is 11.4% (inactive).

As to `CCC(=O)N(C)C[C@H]1Oc2ncc(C#Cc3ccncc3)cc2C(=O)N([C@H](C)CO)C[C@H]1C`, for the setting “at 11 µM (top of the series)”, the activation was -5.99% (inactive).

In the case of `C[C@@H]1CCCCO[C@H](CN(C)Cc2ccc(C(=O)O)cc2)[C@H](C)CN([C@@H](C)CO)C(=O)c2cc(NC(=O)Nc3ccc(C(F)(F)F)cc3)ccc2O1`, the activation (at 11 µM (top of the series)) was 11.3% (inactive).

For `O=C(C[C@H]1CC[C@H]2[C@@H](COC[C@@H](O)CN2C(=O)Nc2cccc(Cl)c2)O1)N1CCCCC1`, the activation (at 11 µM (top of the series)) was 8.71% (inactive).

Consider `CN1CCCC1CCNc1ccc2c(=O)c3ccccc3oc2c1` (stereo not given), for which the AC200 is 1140 nM.

As to `C[C@@H]1CCCCO[C@@H](CN(C)S(C)(=O)=O)[C@@H](C)CN([C@@H](C)CO)C(=O)c2cc(NS(=O)(=O)c3ccc(Cl)cc3)ccc2O1`, the activation (at 11 µM (top of the series)) was 9.01% (inactive).

On to `Cc1c(O)ccc2c(CN3CCN(Cc4ccccc4)CC3)cc(=O)oc12`, for which the AC200 is 5190 nM.

Turning to `C[C@@H]1CN([C@H](C)CO)C(=O)c2cc(NC(=O)Nc3ccc(F)cc3)ccc2O[C@H]1CN(C)Cc1ccc(C(=O)O)cc1`, where the note is “at 11 µM (top of the series)”, the activation was 1.24% (inactive).

`C[C@H](CO)N1C[C@H](C)[C@H](CN(C)Cc2ccncc2)Oc2c(NC(=O)Nc3ccc(C(F)(F)F)cc3)cccc2C1=O`: the activation (at 11 µM (top of the series)) is 4.68% (inactive).

In the case of `C[C@H]1CN([C@@H](C)CO)C(=O)c2cccc(NC(=O)Nc3ccc(C(F)(F)F)cc3)c2O[C@@H]1CN(C)CC1CC1`, under “at 11 µM (top of the series)”, the activation is -16.1% (inactive).

Take `O=c1cc(CN2CCOCC2)c2cc(Cl)c(O)cc2o1`: the AC200 is 2510 nM.

Take `CC(=O)Oc1cc2oc(=O)cc(C)c2cc1Cl`: the AC200 is 1100 nM.

For the compound `O=C(Nc1ccc(C(F)(F)F)cc1)N1[C@@H]2CNC[C@H]1C2c1ccc(-c2ccncc2)cc1` (stereo not given in full), the activation (at 11 µM (top of the series)) was 1.51% (inactive).

For the compound `COc1ccc(S(=O)(=O)Nc2ccc3c(c2)C(=O)N([C@@H](C)CO)C[C@H](C)[C@H](CN(C)C)OCCCC[C@@H](C)O3)cc1`, the activation (at 11 µM (top of the series)) was 5.02% (inactive).

For `C[C@@H]1CCCCO[C@@H](CN(C)CC2CCCCC2)[C@H](C)CN([C@@H](C)CO)C(=O)c2cc(NC(=O)Nc3ccccc3)ccc2O1`, for the setting “at 11 µM (top of the series)”, the activation is 12.1% (inactive).

In the case of `CCNC(=O)[C@H]1[C@H](CO)[C@H]2Cn3c(ccc(/C=C/c4ccccc4)c3=O)[C@@H]1N2C(=O)C1CCCC1`, the AC200 is 1830 nM.

These data come from PubChem BioAssay AID743319 (Broad Institute, 2014).
